According to patent US6376553B1, “Treatment of pain” (Knoll Pharmaceutical Company, priority 1999, dated 2002):

Target: [3H]Noradenaline reuptake (Rattus norvegicus, UniProt Q9WTR4)
Assay: biochemical

Sequence of [3H]Noradenaline reuptake (Q9WTR4 1-597): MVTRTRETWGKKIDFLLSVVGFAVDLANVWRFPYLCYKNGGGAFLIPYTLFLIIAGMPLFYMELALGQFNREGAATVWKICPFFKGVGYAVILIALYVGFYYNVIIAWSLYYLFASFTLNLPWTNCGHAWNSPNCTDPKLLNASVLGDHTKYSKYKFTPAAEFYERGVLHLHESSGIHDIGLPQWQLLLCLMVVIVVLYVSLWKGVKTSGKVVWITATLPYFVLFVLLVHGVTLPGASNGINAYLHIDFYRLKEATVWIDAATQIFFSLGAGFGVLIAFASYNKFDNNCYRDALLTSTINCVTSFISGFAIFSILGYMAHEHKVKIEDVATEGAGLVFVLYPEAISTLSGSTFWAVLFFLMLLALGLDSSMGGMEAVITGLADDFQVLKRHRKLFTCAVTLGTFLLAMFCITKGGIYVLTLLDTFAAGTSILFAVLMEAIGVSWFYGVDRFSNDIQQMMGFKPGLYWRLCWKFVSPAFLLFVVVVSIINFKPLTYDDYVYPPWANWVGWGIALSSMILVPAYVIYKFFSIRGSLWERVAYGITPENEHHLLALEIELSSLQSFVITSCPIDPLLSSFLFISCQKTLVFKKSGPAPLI

Which Ki does the source give for `CC(NC(C)(C)C)C(=O)c1cccc(Cl)c1` (stereo not shown) [Bupropion] here?
The Ki was 2590 nM.
